The assay has as its system DOHH2 cells. The assay can be described thus: Cell proliferation assay (MTS) in DOHH2 cells, mechanism-based assay for BTK inhibition. To be noted: Homo sapiens, DOHH-2, 120 h incubation, 5000 cells/well. The text has this:
Cell Proliferation Assays
MTS testing kit was purchased from Promega. The DMEM, Fetal bovine serum and Penicillin-Streptomycin were purchased from Gibco. Dimethyl sulfoxide (DMSO) was purchased from Sigma.
To investigate whether a compound is able to inhibit the activity of BTK in cells, a mechanism-based assay using DOHH2 (DSMZ catalog#: ACC47) and Mino (ATCC® Number CRL-3000™) cells was developed. In this assay, inhibition of BTK was detected by the inhibition of DOHH2 and Mino cell proliferations. DOHH2 or Mino cells were cultured in culture flasks to 40-80% confluence in RPMI-1640 plus 10% fetal bovine serum. C ells were collected and plated onto 96-well plates at desired cell density (DOHH2: 5000 cells/well; Mino: 10000 cells/well). Plates were incubated overnight at 37° C., with 5% CO2 to adhere. Compounds were added to the plates, and the final compound concentrations were 10000, 3333, 1111, […], 41, 14, 4.6 and 1.5 nM. Plates were placed at 37° C., with 5% CO2 for 120 h (DOHH2) or 72 h (Mino). 20 μl MTS/100 μl medium mixture solution were added to each well and the plates were incubated for exactly 2 hours. The reaction was stopped by adding 25 μl 10% SDS per well.
Select compounds prepared as described above were assayed according to the biological procedures described herein.
In general, IC50 refers to the point on the concentration scale where inhibition reaches its midpoint. Read a low IC50 as higher potency. For the compound `C=CC(=O)N1CC[C@@H](c2nn(-c3ccc(Oc4ccccc4F)cc3)c3c(N)n[nH]c(=O)c23)C1` [Example 41, (R)-3-(1-acryloylpyrrolidin-3-yl)-7-amino-1-(4-(2-fluorophenoxy)phenyl)-1,5-dihydro-4H-pyrazolo[3,4-d]pyridazin-4-one], half-maximal inhibition (IC50) was put at 146 nM.

Take `C=CC(=O)N1CC[C@@H](c2nn(-c3ccc(Oc4cccc(F)c4F)cc3)c3c(N)n[nH]c(=O)c23)C1` [Example 44, (R)-3-(1-acryloylpyrrolidin-3-yl)-7-amino-1-(4-(2,3-difluorophenoxy)phenyl)-1,5-dihydro-4H-pyrazolo[3,4-d]pyridazin-4-one]: the IC50 amounted to 113 nM.

In turn, `C=CC(=O)N1CC[C@@H](c2nn(-c3ccc(Oc4cc(F)cc(F)c4)cc3)c3c(N)n[nH]c(=O)c23)C1` [Example 46, (R)-3-(1-acryloylpyrrolidin-3-yl)-7-amino-1-(4-(3,5-difluorophenoxy)phenyl)-1,5-dihydro-4H-pyrazolo[3,4-d]pyridazin-4-one] yielded an IC50 of 59 nM.

Turning to `C=CC(=O)N1CC[C@H](c2nn(-c3ccc(Oc4ccccc4F)cc3)c3c(N)n[nH]c(=O)c23)C1` [Example 47, (S)-3-(1-acryloylpyrrolidin-3-yl)-7-amino-1-(4-(2-fluorophenoxy)phenyl)-1,5-dihydro-4H-pyrazolo[3,4-d]pyridazin-4-one], the midpoint of inhibition, the IC50, lay at 60 nM.

`C=CC(=O)N1CC[C@H](c2nn(-c3ccc(Oc4cccc(F)c4F)cc3)c3c(N)n[nH]c(=O)c23)C1` [Example 50, (S)-3-(1-acryloylpyrrolidin-3-yl)-7-amino-1-(4-(2,3-difluorophenoxy)phenyl)-1,5-dihydro-4H-pyrazolo[3,4-d]pyridazin-4-one] yielded an IC50 of 678 nM.

As for `C=CC(=O)N1CC[C@H](c2nn(-c3ccc(Oc4c(F)cccc4F)cc3)c3c(N)n[nH]c(=O)c23)C1` [Example 51, (S)-3-(1-acryloylpyrrolidin-3-yl)-7-amino-1-(4-(2,6-difluorophenoxy)phenyl)-1,5-dihydro-4H-pyrazolo[3,4-d]pyridazin-4-one], 215 nM corresponded to half-maximal inhibition (IC50).

The compound `C=CC(=O)N1CC[C@H](c2nn(-c3ccc(Oc4cc(F)cc(F)c4)cc3)c3c(N)n[nH]c(=O)c23)C1` [Example 52, (S)-3-(1-acryloylpyrrolidin-3-yl)-7-amino-1-(4-(3,5-difluorophenoxy)phenyl)-1,5-dihydro-4H-pyrazolo[3,4-d]pyridazin-4-one] showed an IC50 of 321 nM.

The compound `C=CC(=O)N1CCC[C@@H](c2nn(-c3ccc(Oc4ccccc4F)cc3)c3c(N)n[nH]c(=O)c23)C1` [Example 53, (R)-3-(1-acryloylpiperidin-3-yl)-7-amino-1-(4-(2-fluorophenoxy)phenyl)-1,5-dihydro-4H-pyrazolo[3,4-d]pyridazin-4-one] showed an IC50 of 196 nM.

As for `C=CC(=O)N1CCC[C@@H](c2nn(-c3ccc(Oc4cccc(F)c4F)cc3)c3c(N)n[nH]c(=O)c23)C1` [Example 56, (R)-3-(1-acryloylpiperidin-3-yl)-7-amino-1-(4-(2,3-difluorophenoxy)phenyl)-1,5-dihydro-4H-pyrazolo[3,4-d]pyridazin-4-one], the IC50 turned out to be 42 nM.

As to `C=CC(=O)N1CCC[C@@H](c2nn(-c3ccc(Oc4c(F)cccc4F)cc3)c3c(N)n[nH]c(=O)c23)C1` [Example 57, (R)-3-(1-acryloylpiperidin-3-yl)-7-amino-1-(4-(2,6-difluorophenoxy)phenyl)-1,5-dihydro-4H-pyrazolo[3,4-d]pyridazin-4-one], the IC50 turned out to be 76 nM.

`C=CC(=O)N1CCC[C@@H](c2nn(-c3ccc(Oc4cc(F)cc(F)c4)cc3)c3c(N)n[nH]c(=O)c23)C1` [Example 58, (R)-3-(1-acryloylpiperidin-3-yl)-7-amino-1-(4-(3,5-difluorophenoxy)phenyl)-1,5-dihydro-4H-pyrazolo[3,4-d]pyridazin-4-one] had an IC50 of 224 nM.

The record behind these values is patent US10800785B2, “Substituted pyrrolo[2,3-d]pyridazin-4-ones and pyrazolo[3,4-d]pyridazin-4-ones as protein kinase inhibitors” (Shanghai Fochon Pharmaceutical Co., Ltd., priority 2016, dated 2020).
